Experiment: Partition coefficient, log P of the compound at 5 mM by reversed phase HPLC analysis
Format: physicochemical
Conditions: octanol/water

| logP at 5000 µM | SMILES |
| --- | --- |
| 8 | CCCCCCCCc1ccc(OCC(=O)Cn2nnc(-c3ccc(C(=O)OC)cc3)n2)cc1 |
| 2.6 | CC(Oc1ccc(-c2ccccc2)cc1)C(=O)Cn1nnc(-c2ccc(C(=O)O)cc2)n1 (centres undefined) |
| > 8 | CCCCCCCCc1ccc(OC(C)C(=O)Cn2nnc(-c3ccc(Cl)cc3)n2)cc1 (centres undefined) |
| 6.2 | COC(=O)c1ccc(-c2nnn(CC(=O)C(C)Oc3ccc(Oc4ccc(C(F)(F)F)cc4)cc3)n2)cc1 (centres undefined) |
| 3.3 | CC(Oc1ccc(Oc2ccc(Cl)cc2)cc1)C(=O)Cn1nnc(-c2ccc(C(=O)O)cc2)n1 (centres undefined) |
| 8 | CCCCCCCCc1ccc(OCC(=O)Cn2nnc(-c3ccccc3)n2)cc1 |
| > 8 | CCCCCCCCc1ccc(OC(C)C(=O)Cn2nnc(-c3ccccc3)n2)cc1 (centres undefined) |
| 5.9 | CCCCCCCCc1ccc(OC(C)C(=O)Cn2nnc(-c3ccc(C(=O)O)cc3)n2)cc1 (centres undefined) |
| 3.5 | CC(Oc1ccc(Oc2ccc(C(F)(F)F)cc2)cc1)C(=O)Cn1nnc(-c2ccc(C(=O)O)cc2)n1 (centres undefined) |
| 6.2 | CC(Oc1ccc(Oc2ccc(F)cc2)cc1)C(=O)Cn1nnc(-c2ccc(Cl)cc2)n1 (centres undefined) |
| 5.3 | CC(Oc1ccc(Oc2ccc(F)cc2)cc1)C(=O)Cn1nnc(-c2ccccc2)n1 (centres undefined) |
| 5.4 | COC(=O)c1ccc(-c2nnn(CC(=O)C(C)Oc3ccc(-c4ccccc4)cc3)n2)cc1 (centres undefined) |
| 7 | CC(Oc1ccc(Oc2ccc(C(F)(F)F)cc2)cc1)C(=O)Cn1nnc(-c2ccc(Cl)cc2)n1 (centres undefined) |
| 5.4 | COC(=O)c1ccc(-c2nnn(CC(=O)C(C)Oc3ccc(Oc4ccc(F)cc4)cc3)n2)cc1 (centres undefined) |

The remaining lines, values behind:

| SMILES | logP at 5000 µM |
| --- | --- |
| CCCCCCCCc1ccc(OC(C)C(=O)Cn2nnc(-c3ccc(C(=O)OC)cc3)n2)cc1 (centres undefined) | > 8 |
| CC(Oc1ccc(-c2ccccc2)cc1)C(=O)Cn1nnc(-c2ccc(Cl)cc2)n1 (centres undefined) | 6.1 |
| CCCCCCCCc1ccc(OCC(=O)Cn2nnc(C(=O)O)n2)cc1 | 5.3 |
| CC(Oc1ccc(-c2ccccc2)cc1)C(=O)Cn1nnc(-c2ccccc2)n1 (centres undefined) | 5.3 |
| CC(Oc1ccc(Oc2ccc(Cl)cc2)cc1)C(=O)Cn1nnc(-c2ccc(Cl)cc2)n1 (centres undefined) | 6.8 |
| CCCCCCCCc1ccc(OCC(=O)Cn2nnc(-c3ccc(Cl)cc3)n2)cc1 | > 8 |
| CC(Oc1ccc(Oc2ccc(Cl)cc2)cc1)C(=O)Cn1nnc(-c2ccccc2)n1 (centres undefined) | 6 |
| CC(Oc1ccc(Oc2ccc(F)cc2)cc1)C(=O)Cn1nnc(-c2ccc(C(=O)O)cc2)n1 (centres undefined) | 2.7 |
| COC(=O)c1ccc(-c2nnn(CC(=O)C(C)Oc3ccc(Oc4ccc(Cl)cc4)cc3)n2)cc1 (centres undefined) | 6.1 |
| CC(Oc1ccc(Oc2ccc(C(F)(F)F)cc2)cc1)C(=O)Cn1nnc(-c2ccccc2)n1 (centres undefined) | 6.2 |

Source: ChEMBL document CHEMBL4382212, “Tetrazolylpropan-2-ones as inhibitors of fatty acid amide hydrolase: Studies on structure-activity relationships and metabolic stability” (Eur J Med Chem, 2018)
